Assay results published in ChEMBL document CHEMBL1201862, “PubChem BioAssay data set” (2004).
Calls of active or inactive are those of the source.

Columns and labels:
Cytochrome P450 2C19 = Cytochrome P450 2C19 (Homo sapiens, UniProt P33261); test: Cytochrome panel assay with activity outcomes. Panel member name: p450-cyp2c19 Compounds with AC50 equal or less than 10 uM are considered active; format: functional
Cytochrome P450 3A4 = Cytochrome P450 3A4 (Homo sapiens, UniProt P08684);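 further: CYP3A4 tested as one member of a cytochrome P450 panel screen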
Cytochrome P450 2D6 = Cytochrome P450 2D6 (Homo sapiens, UniProt P10635);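 further: CYP2D6 member of a cytochrome P450 panel assay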
[1] = Luminescence Cell-Based Dose Confirmation HTS to Identify Activators of 5'UTR Stem-Loop Driven Alpha-Synuclein mRNA Translation in H4 Neuroglioblastoma Cells. [Related pubchem assays: 1829 (Project Summary), 1814 (Primary HTS)]; format: functional
H4 = test: Luminescence Cell-Based Dose Response HTS to Identify Activators of 5'UTR Stem-Loop Driven Prion Protein mRNA Translation in H4 Neuroglioblastoma Cells. [Related pubchem assays: 1829 (Project Summary), 1814 (Primary HTS)]; format: functional; conditions: Homo sapiens
[2] = Luminescence Cell-Based Dose Response HTS to Identify Activators of Luciferase Translation or Activity in H4 […] Cells. [Related pubchem assays: 1829 (Project Summary), 1814 (Primary HTS)]; format: functional
Cytochrome P450 2C9 = Cytochrome P450 2C9 (Homo sapiens, UniProt P11712)
Cytochrome P450 1A2 = target: T1, Cytochrome P450 1A2 (Homo sapiens, UniProt P05177);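 further: PubChem cytochrome P450 panel assay, CYP1A2 panel member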
T1 sequence (P05177 whole entry): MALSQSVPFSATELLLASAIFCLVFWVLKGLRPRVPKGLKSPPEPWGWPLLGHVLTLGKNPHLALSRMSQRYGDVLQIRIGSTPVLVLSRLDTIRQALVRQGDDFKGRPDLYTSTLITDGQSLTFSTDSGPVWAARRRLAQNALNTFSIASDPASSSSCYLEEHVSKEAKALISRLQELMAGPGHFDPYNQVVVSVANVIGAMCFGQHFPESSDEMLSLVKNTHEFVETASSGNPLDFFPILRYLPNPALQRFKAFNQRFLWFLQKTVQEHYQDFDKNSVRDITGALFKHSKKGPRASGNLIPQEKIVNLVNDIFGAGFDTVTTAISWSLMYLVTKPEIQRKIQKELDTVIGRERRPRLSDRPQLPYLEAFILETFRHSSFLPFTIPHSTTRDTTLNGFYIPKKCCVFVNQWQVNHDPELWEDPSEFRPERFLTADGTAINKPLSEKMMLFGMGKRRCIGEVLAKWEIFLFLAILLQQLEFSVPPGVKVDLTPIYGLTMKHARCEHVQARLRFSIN

Chain of Cytochrome P450 2C9 (P11712 whole entry): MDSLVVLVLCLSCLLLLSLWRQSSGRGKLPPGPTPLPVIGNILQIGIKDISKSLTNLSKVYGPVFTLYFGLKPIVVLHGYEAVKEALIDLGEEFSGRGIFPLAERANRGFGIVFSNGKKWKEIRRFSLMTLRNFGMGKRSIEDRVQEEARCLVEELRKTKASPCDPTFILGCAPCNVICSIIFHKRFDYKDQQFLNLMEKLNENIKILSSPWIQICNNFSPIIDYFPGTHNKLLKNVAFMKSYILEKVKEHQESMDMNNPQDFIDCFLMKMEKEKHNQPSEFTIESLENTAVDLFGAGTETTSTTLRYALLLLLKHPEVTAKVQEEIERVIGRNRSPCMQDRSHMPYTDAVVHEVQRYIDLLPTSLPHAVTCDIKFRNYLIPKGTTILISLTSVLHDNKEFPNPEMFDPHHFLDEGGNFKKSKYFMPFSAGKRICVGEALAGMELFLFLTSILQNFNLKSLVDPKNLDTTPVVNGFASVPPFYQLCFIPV
Chain of Cytochrome P450 2C19 (P33261 whole entry): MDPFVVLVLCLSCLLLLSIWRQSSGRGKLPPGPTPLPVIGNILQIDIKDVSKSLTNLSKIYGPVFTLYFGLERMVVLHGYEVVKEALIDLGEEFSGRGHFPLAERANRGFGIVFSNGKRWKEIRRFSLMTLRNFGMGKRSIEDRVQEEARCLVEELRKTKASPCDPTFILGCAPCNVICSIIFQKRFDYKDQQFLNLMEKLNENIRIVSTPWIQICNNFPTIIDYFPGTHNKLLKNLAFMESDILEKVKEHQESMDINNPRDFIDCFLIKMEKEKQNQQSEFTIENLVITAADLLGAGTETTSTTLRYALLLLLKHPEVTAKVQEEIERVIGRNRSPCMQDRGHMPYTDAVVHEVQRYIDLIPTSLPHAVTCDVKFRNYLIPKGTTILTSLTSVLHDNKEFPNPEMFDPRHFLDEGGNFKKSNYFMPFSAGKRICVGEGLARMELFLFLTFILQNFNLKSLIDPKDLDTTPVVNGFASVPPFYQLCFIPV
Chain of Cytochrome P450 2D6 (P10635 whole entry): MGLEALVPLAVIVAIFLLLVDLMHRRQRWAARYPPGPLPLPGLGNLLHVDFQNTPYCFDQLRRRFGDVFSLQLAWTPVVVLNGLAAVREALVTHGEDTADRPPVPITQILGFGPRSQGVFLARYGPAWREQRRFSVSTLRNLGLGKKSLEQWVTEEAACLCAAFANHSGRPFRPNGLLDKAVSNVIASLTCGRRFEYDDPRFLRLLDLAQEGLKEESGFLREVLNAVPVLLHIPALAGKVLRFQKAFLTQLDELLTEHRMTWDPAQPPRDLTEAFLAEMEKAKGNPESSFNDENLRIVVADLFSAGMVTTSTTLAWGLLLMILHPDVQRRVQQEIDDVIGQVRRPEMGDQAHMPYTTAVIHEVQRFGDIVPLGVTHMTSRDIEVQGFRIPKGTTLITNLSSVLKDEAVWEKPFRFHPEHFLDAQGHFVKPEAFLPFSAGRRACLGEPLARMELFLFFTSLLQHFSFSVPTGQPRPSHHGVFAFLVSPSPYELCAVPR
Chain of Cytochrome P450 3A4 (P08684 whole entry): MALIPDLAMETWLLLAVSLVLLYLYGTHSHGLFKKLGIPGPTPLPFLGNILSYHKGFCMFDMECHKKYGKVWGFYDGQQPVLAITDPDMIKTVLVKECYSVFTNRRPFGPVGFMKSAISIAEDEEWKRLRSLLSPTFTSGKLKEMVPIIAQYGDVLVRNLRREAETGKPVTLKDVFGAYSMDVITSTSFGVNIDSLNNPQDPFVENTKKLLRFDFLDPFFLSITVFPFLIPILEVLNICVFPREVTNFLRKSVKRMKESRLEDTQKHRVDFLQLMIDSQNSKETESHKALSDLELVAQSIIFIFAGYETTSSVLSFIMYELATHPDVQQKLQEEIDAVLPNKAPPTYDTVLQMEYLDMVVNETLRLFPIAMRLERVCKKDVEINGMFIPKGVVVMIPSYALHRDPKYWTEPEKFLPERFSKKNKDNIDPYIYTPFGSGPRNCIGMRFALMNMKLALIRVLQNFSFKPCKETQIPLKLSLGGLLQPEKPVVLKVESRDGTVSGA

SMILES	AC50 (Cytochrome P450 2C19; read-out: AC50)	AC50 (Cytochrome P450 3A4)	EC50 [1]	EC50 (H4)	EC50 [2]	other results
CCOc1cc(NC(=O)c2ccccc2C)c(OCC)cc1N=C(S)NCC1CCCO1 (stereo not given)	11.2 µM (inconclusive)	–	–	–	–	–
CCCCN(C(S)=Nc1ccccc1)C1CCS(=O)(=O)C1 (stereo not given)	–	22.4 µM (inconclusive)	–	–	–	–
COc1ccccc1-c1cncnc1-n1ccnc1	25.1 µM (inconclusive)	–	–	–	–	AC50 (Cytochrome P450 2D6): 25.1 µM (inconclusive)
COc1ccc2nc(NNC(=O)c3cc(=O)c4ccccc4o3)sc2c1	–	–	40.6 µM (active)	17.4 µM (active)	24.4 µM (active)	–
O=c1[nH]ncc2c3ccccc3n(Cc3ccccc3)c12	2.51 µM (inconclusive)	–	–	–	–	AC50 (Cytochrome P450 2C9): 2 µM (inconclusive)
COCCn1c(=O)c(-c2ccc(Cl)cc2)nc2cncnc21	39.8 µM (inconclusive)	12.6 µM (inconclusive)	–	–	–	AC50 (Cytochrome P450 2C9): 31.6 µM (inconclusive)
O=C1C[C@H]2[C@H](CO)[C@@H](OC(=O)c3ccc(-c4ccccc4)cc3)C[C@H]2O1	–	–	12.8 µM (active)	69.8 µM (active)	16.9 µM (active)	–
Fc1ccc(-c2csc(N3CCC(c4ccccc4)C3)n2)cc1 (stereo not given)	–	28.2 µM (inconclusive)	–	–	–	–
CNC(=O)c1cc2c(cn1)[nH]c1ccccc12	–	39.8 µM (inconclusive)	–	–	–	AC50 (Cytochrome P450 2C19): inconclusive; AC50 (Cytochrome P450 2C9): 31.6 µM (inconclusive)
NC(=O)C1CC(=O)N(c2ccc(OCc3ccc(Cl)cc3)cc2)C1 (stereo not given)	–	–	19.2 µM (active)	–	42.6 µM (active)	–
COc1ccc(-c2coc3cc(OC)cc(O)c3c2=O)cc1 [4',7-DIMETHOXY-5-HYDROXYGENISTEIN]	25.1 µM (inconclusive)	–	–	–	–	AC50 (Cytochrome P450 2C9): 2.82 µM (inconclusive)
COC(=O)C1(Cc2ccccc2)C=C2C(=C(C(C)C)C(=O)C2C)CN1 (stereo not given)	39.8 µM (inconclusive)	–	–	–	–	AC50 (Cytochrome P450 1A2): 15.8 µM (inconclusive); AC50 (Cytochrome P450 2C9): 31.6 µM (inconclusive)
Cc1onc(-c2ccccc2)c1C(=O)NC(CC(=O)O)c1ccc(OC(C)C)cc1 (stereo not given)	7.08 µM (inconclusive)	28.2 µM (inconclusive)	–	–	–	AC50 (Cytochrome P450 2C9): 15.8 µM (inconclusive)
CC(C)(C)CC(C)(C)c1ccc(O)c(C[N+](C)(C)[O-])c1	–	5.01 µM (inconclusive)	–	–	–	AC50 (Cytochrome P450 2D6): 7.94 µM (inconclusive)
COc1ccc(C(=O)NCCCN2CCOCC2)cc1OC	–	–	–	–	–	AC50 (Cytochrome P450 2C9): 14.1 µM (inconclusive); AC50 (Cytochrome P450 2D6): 2 µM (inconclusive)
CCCCN1C(=O)C(NC(=O)CC(C)C)(C(F)(F)F)C2=C1CC(C)(C)CC2=O (stereo not given)	25.1 µM (inconclusive)	–	–	–	–	AC50 (Cytochrome P450 2C9): 5.62 µM (inconclusive)
C(=N\n1cnnc1)/c1cccn1-c1ccccc1	0.0251 µM (inconclusive)	39.8 µM (inconclusive)	–	–	–	–
Cc1cc(C)c(C(N)=O)c(SCC(=O)c2ccc(Cl)cc2)n1	–	31.6 µM (inconclusive)	–	–	–	AC50 (Cytochrome P450 1A2): 15.8 µM (inconclusive)
C(=C/c1ccccc1)/C=N/c1ccc2c(c1)Cc1ccccc1-2	–	3.98 µM (inconclusive)	–	–	–	–
c1ccc(NCc2nc(-c3ccccc3)no2)cc1	–	–	3.25 µM (active)	15.8 µM (active)	21.4 µM (active)	–
CCCCCCCCCCCCC/C=C\[C@@H](O)[C@@H](N)CO	25.1 µM (inconclusive)	–	–	–	–	AC50 (Cytochrome P450 2C9): 39.8 µM (inconclusive)
CCOc1ccc2nc(NC(=O)CSc3nnc(-c4ccncc4)n3CC3CCCO3)sc2c1 (stereo not given)	–	–	7.45 µM (active)	11.8 µM (active)	8.04 µM (active)	–

SMILES	AC50 (Cytochrome P450 2C19; read-out: AC50)	AC50 (Cytochrome P450 3A4)	EC50 [1]	EC50 (H4)	EC50 [2]	other results
CCOC(=O)c1ccccc1NC(=O)CSc1cccc[n+]1[O-]	22.4 µM (inconclusive)	–	–	–	–	AC50 (Cytochrome P450 1A2): 25.1 µM (inconclusive)
CCNc1ncc2nc(-c3cccc(C#N)c3)c(=O)n(CCC#N)c2n1	–	7.94 µM (inconclusive)	–	–	–	AC50 (Cytochrome P450 1A2): 0.631 µM (inconclusive)
CC1(CCC#N)N=C(SCCC#N)N(c2ccccc2)C1=O (stereo not given)	25.1 µM (inconclusive)	–	–	–	–	–
CC(Sc1nncn1C)C(=O)Nc1nnc(-c2ccccc2)s1 (stereo not given)	–	–	19.1 µM (active)	17.5 µM (active)	25 µM (active)	–
CCOc1ccc(-c2nnc(-c3ccncc3)o2)cc1	–	1.58 µM (inconclusive)	–	–	–	–
CC(C)c1nnc(NC(=O)COc2ccccc2[N+](=O)[O-])s1	–	–	0.112 µM (active)	13.6 µM (active)	67 µM (active)	–
COc1ccccc1CN1CCCC2(CCN(C(=O)c3ccncc3)CC2)C1	–	–	–	–	–	AC50 (Cytochrome P450 1A2): 20 µM (inconclusive); AC50 (Cytochrome P450 2C9): 20 µM (inconclusive)
COc1ccc(-c2cc(C(=O)Nc3cccc(Cl)c3)no2)cc1	–	–	–	0.184 µM (active)	–	–
COc1ccc(C2CC(c3ccc4ccccc4c3)=NN2C(=O)CN2CCC(C(N)=O)CC2)cc1 (stereo not given)	–	–	15.6 µM (active)	16.5 µM (active)	18.1 µM (active)	–
COc1ccc(C2SCC(=O)Nc3c2c(C)nn3-c2ccccc2)cc1OC (stereo not given)	–	12.6 µM (inconclusive)	–	–	–	AC50 (Cytochrome P450 1A2): 22.4 µM (inconclusive)
Cc1ccc(C(=O)CC(=O)c2ccccc2)cc1	–	–	5.35 µM (active)	> 120 µM (not active)	1.75 µM (active)	–
C/C(=C\c1ccco1)CN1CCC(N2CCC(C(=O)N3CCOCC3)CC2)CC1	–	–	11.2 µM (active)	> 120 µM (not active)	15.5 µM (active)	–
CCCCNc1nc(SC)nc2[nH]cnc12	3.16 µM (inconclusive)	3.16 µM (inconclusive)	–	–	–	AC50 (Cytochrome P450 2D6): 2.51 µM (inconclusive)
CCOC(=O)c1c(C)n(C)c2ccc(OC)c(NC(=O)CN3CCCCC3)c12	11.2 µM (inconclusive)	14.1 µM (inconclusive)	–	–	–	AC50 (Cytochrome P450 2D6): 20 µM (inconclusive)
CC(C)=NOCc1cccc(-c2cc(-c3ccccc3)no2)c1	–	6.31 µM (inconclusive)	–	–	–	–
Cn1ncc2cc(NC(=S)NC(=O)c3ccccc3)ccc21	–	–	13.8 µM (active)	83 µM (active)	21 µM (active)	–
Cc1ccc(NC(=S)N2CCN(C3CCCCC3)CC2)cc1	–	10 µM (inconclusive)	–	–	–	–
CCCc1ccc(Oc2cc(Cl)nc(N)n2)cc1	–	–	8.77 µM (active)	72 µM (active)	11.8 µM (active)	–
O=C(CSc1nnc2ccccn12)N1CCc2ccccc2C1	–	–	13.1 µM (active)	78 µM (active)	38.9 µM (active)	–
Nc1ccccc1SCc1csc(-c2ccc(Cl)cc2)n1	–	–	–	–	–	AC50 (Cytochrome P450 2C9): 5.01 µM (inconclusive); AC50 (Cytochrome P450 2D6): 3.16 µM (inconclusive)
C/C(=N/NC(=O)c1cccs1)c1ccc(NC(=O)COc2ccc(Cl)cc2Cl)cc1	–	–	–	–	–	AC50 (Cytochrome P450 1A2): 12.6 µM (inconclusive); AC50 (Cytochrome P450 2C9): 4.47 µM (inconclusive)
